From PubChem BioAssay AID248 (DTP/NCI, 2004)
“And” between values parts separate entries of the source, which are not always exact repeats. Equal values may be shown once. Inconclusive results and toxic doses are left out. No stated cut-off is given here; in the data, active means T/C of 150% or more; inactive means T/C below 125%. Square brackets hold non-standard residues; d marks the D form. Peptide text beside a SMILES is read from it. * marks the point of attachment. Cbz = O=C(OCc1ccccc1)*; Sar = CNCC(=O)O

Test system: L1210 leukemia ip in BDF1 mice, survival T/C
Test: NCI In Vivo Anticancer Drug Screen. Data for tumor model L1210 Leukemia (intraperitoneal) in B6D2F1 (BDF1) mice
Conditions: endpoint: mean survival time, higher = longer survival
How it was run: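 Read-out is survival time, reported as the treated-group measurement over the vehicle-control measurement.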

[1] = dose: 100.0 mg/kg/injection, schedule: Q04DX002 (ip), vehicle: Klucel (hydroxypropylcellulose) (HPC)
[2] = dose: 100.0 mg/kg/injection, schedule: Q04DX003 (ip), vehicle: Klucel (hydroxypropylcellulose) (HPC)
[3] = dose: 200.0 mg/kg/injection, schedule: Q04DX002 (ip), vehicle: Klucel (hydroxypropylcellulose) (HPC)
[4] = dose: 200.0 mg/kg/injection, schedule: Q04DX003 (ip), vehicle: Klucel (hydroxypropylcellulose) (HPC)
[5] = dose: 400.0 mg/kg/injection, schedule: Q04DX002 (ip), vehicle: Klucel (hydroxypropylcellulose) (HPC)
[6] = dose: 400.0 mg/kg/injection, schedule: Q04DX003 (ip), vehicle: Klucel (hydroxypropylcellulose) (HPC)
[7] = dose: 100.0 mg/kg/injection, schedule: Q04DX003 (ip), vehicle: saline
[8] = dose: 200.0 mg/kg/injection, schedule: Q04DX003 (ip), vehicle: saline
[9] = dose: 400.0 mg/kg/injection, schedule: Q04DX003 (ip), vehicle: saline
[10] = dose: 100.0 mg/kg/injection, schedule: Q01DX009 (ip), vehicle: Klucel (hydroxypropylcellulose) (HPC)
[11] = dose: 200.0 mg/kg/injection, schedule: Q01DX009 (ip), vehicle: Klucel (hydroxypropylcellulose) (HPC)
[12] = dose: 400.0 mg/kg/injection, schedule: Q01DX009 (ip), vehicle: Klucel (hydroxypropylcellulose) (HPC)
[13] = dose: 75.0 mg/kg/injection, schedule: Q01DX001 (ip), vehicle: saline
[14] = dose: 150.0 mg/kg/injection, schedule: Q01DX001 (ip), vehicle: saline
[15] = dose: 75.0 mg/kg/injection, schedule: Q01DX009 (ip), vehicle: saline
[16] = dose: 150.0 mg/kg/injection, schedule: Q01DX009 (ip), vehicle: saline
[17] = dose: 300.0 mg/kg/injection, schedule: Q01DX009 (ip), vehicle: saline

Measured: T/C

c1ccc(Nc2ncn[nH]2)cc1
inactive: dose: 100.0 mg/kg/injection, schedule: Q04DX002 (ip), vehicle: gum acacia 106 % of control | dose: 200.0 mg/kg/injection, schedule: Q04DX002 (ip), vehicle: gum acacia 103 % of control | dose: 400.0 mg/kg/injection, schedule: Q04DX002 (ip), vehicle: gum acacia 117 % of control

O=C1OC(=O)C2C3CCCCC3=C3CCCCC3C12 (stereo unspecified)
inactive: [1] 96 % of control | [2] 101 % of control | [3] 101 % of control | [4] 105 % of control | [5] 93 % of control | [6] 103 % of control

BrC1C2C=CCC1CC2 (stereo unspecified)
inactive: dose: 100.0 mg/kg/injection, schedule: Q01DX009 (ip), vehicle: saline 91 % of control | [7] 96 % of control | dose: 200.0 mg/kg/injection, schedule: Q01DX009 (ip), vehicle: saline 97 % of control | [8] 96 % of control | dose: 400.0 mg/kg/injection, schedule: Q01DX009 (ip), vehicle: saline 94 % of control | [9] 94 % of control

CC(/C=N/NC(N)=S)Cc1ccc(C(C)C)cc1 (stereo unspecified)
inactive: dose: 12.5 mg/kg/injection, schedule: Q04DX003 (ip), vehicle: saline with Tween-80 98 % of control | dose: 18.0 mg/kg/injection, schedule: Q01DX009 (ip), vehicle: alcohol 95 % of control | dose: 28.0 mg/kg/injection, schedule: Q01DX009 (ip), vehicle: alcohol 95 % of control

O=C(NC(=S)Nc1ccc(Cl)c(Cl)c1)c1cccc([N+](=O)[O-])c1
inactive: [10] 95 % of control | [1] 95 % of control and 97 % of control | [2] 93 % of control | [11] 95 % of control | [3] 93 % of control and 97 % of control | [4] 95 % of control | [12] 92 % of control and 94 % of control | [5] 95 % of control and 102 % of control | [6] 93 % of control

CC(C)C(NC(=O)OCc1ccccc1)C(=O)O (stereo unspecified)
inactive: dose: 9.37 mg/kg/injection, schedule: Q01DX009 (ip), vehicle: saline 98 % of control | dose: 18.75 mg/kg/injection, schedule: Q01DX009 (ip), vehicle: saline 93 % of control | dose: 37.5 mg/kg/injection, schedule: Q01DX009 (ip), vehicle: saline 100 % of control | dose: 37.5 mg/kg/injection, schedule: Q04DX003 (ip), vehicle: saline 103 % of control | [13] 96 % of control | dose: 75.0 mg/kg/injection, schedule: Q04DX003 (ip), vehicle: saline 101 % of control | [14] 102 % of control

COC(=O)Nc1c(C)cc(C)cc1C
inactive: [7] 94 % of control | [8] 94 % of control | [9] 98 % of control

OC1C2CCC(C2)C1C(O)(C(F)(F)Cl)C(F)(F)Cl (stereo unspecified)
inactive: dose: 100.0 mg/kg/injection, schedule: Q04DX003 (ip), vehicle: saline with Tween-80 93 % of control | dose: 200.0 mg/kg/injection, schedule: Q04DX003 (ip), vehicle: saline with Tween-80 92 % of control | dose: 400.0 mg/kg/injection, schedule: Q04DX003 (ip), vehicle: saline with Tween-80 97 % of control

O=S1(=O)CC2(N3CCOCC3)CCCCC21 (stereo unspecified)
inactive: dose: 50.0 mg/kg/injection, schedule: Q01DX001 (ip), vehicle: carboxymethylcellulose (CMC) 98 % of control | dose: 100.0 mg/kg/injection, schedule: Q01DX001 (ip), vehicle: carboxymethylcellulose (CMC) 104 % of control | dose: 200.0 mg/kg/injection, schedule: Q01DX001 (ip), vehicle: carboxymethylcellulose (CMC) 98 % of control

CC12OC1(C)C1(C)C3(C)OC3(C)C21C (stereo unspecified)
inactive: dose: 50.0 mg/kg/injection, schedule: Q01DX009 (ip), vehicle: Klucel (hydroxypropylcellulose) (HPC) 97 % of control | dose: 100.0 mg/kg/injection, schedule: Q01DX001 (ip), vehicle: Klucel (hydroxypropylcellulose) (HPC) 100 % of control | [10] 96 % of control | dose: 200.0 mg/kg/injection, schedule: Q01DX001 (ip), vehicle: Klucel (hydroxypropylcellulose) (HPC) 100 % of control | [11] 96 % of control

Cc1[nH]c(=O)[nH]c(=O)c1C
inactive: [10] 106 % of control | [2] 102 % of control | [11] 103 % of control | [4] 98 % of control | [12] 93 % of control | [6] 91 % of control

O=C(c1ccccc1)N(O)c1ccccc1
inactive: [13] 93 % of control | [15] 91 % of control | [14] 104 % of control | [16] 98 % of control | dose: 300.0 mg/kg/injection, schedule: Q01DX001 (ip), vehicle: saline 95 % of control | [17] 96 % of control

CN(C)C(=O)C1C2CCC(C3CC32)C1C(=O)N(C)C (stereo unspecified)
inactive: [15] 95 % of control | [7] 106 % of control | [16] 97 % of control | [8] 106 % of control | [17] 95 % of control | [9] 103 % of control

CN(CC(N)=O)C(=O)CNC(=O)OCc1ccccc1 (Cbz-Gly-[Sar]-NH2)
inactive: [2] 96 % of control | [4] 99 % of control | [6] 97 % of control

Nc1cccc(CO)c1
inactive: dose: 100.0 mg/kg/injection, schedule: Q04DX002 (ip), vehicle: saline with Tween-80 104 % of control | dose: 200.0 mg/kg/injection, schedule: Q04DX002 (ip), vehicle: saline with Tween-80 90 % of control | dose: 400.0 mg/kg/injection, schedule: Q04DX002 (ip), vehicle: saline with Tween-80 90 % of control

O=C(N/N=C/c1cccc([N+](=O)[O-])c1)c1ccccc1Cl
inactive: dose: 50.0 mg/kg/injection, schedule: Q01DX009 (ip), vehicle: saline with Tween-80 98 % of control | dose: 100.0 mg/kg/injection, schedule: Q01DX009 (ip), vehicle: saline with Tween-80 107 % of control | dose: 200.0 mg/kg/injection, schedule: Q01DX009 (ip), vehicle: saline with Tween-80 102 % of control

O=[N+]([O-])C12CC3CC(CC(C3)C1)C2
inactive: dose: 100.0 mg/kg/injection, schedule: Q01DX001 (sc), vehicle: olive oil, sesame oil, peanut oil 114 % of control | dose: 200.0 mg/kg/injection, schedule: Q01DX001 (sc), vehicle: olive oil, sesame oil, peanut oil 108 % of control | dose: 400.0 mg/kg/injection, schedule: Q01DX001 (sc), vehicle: olive oil, sesame oil, peanut oil 93 % of control

Cc1cc(=O)[nH]c(NCCCCCC(=O)O)n1
inactive: dose: 25.0 mg/kg/injection, schedule: Q04DX003 (ip), vehicle: saline 104 % of control | dose: 50.0 mg/kg/injection, schedule: Q04DX003 (ip), vehicle: saline 104 % of control | [7] 101 % of control

O=C1C=CC(=O)C2C1C1(Cl)CC2(Cl)C(Cl)=C1Cl (stereo unspecified)
inactive: dose: 6.25 mg/kg/injection, schedule: Q04DX002 (ip), vehicle: Klucel (hydroxypropylcellulose) (HPC) 100 % of control | dose: 12.5 mg/kg/injection, schedule: Q04DX002 (ip), vehicle: Klucel (hydroxypropylcellulose) (HPC) 95 % of control | dose: 25.0 mg/kg/injection, schedule: Q04DX002 (ip), vehicle: Klucel (hydroxypropylcellulose) (HPC) 100 % of control and 108 % of control

Cc1c2ccnc(-c3ccc(F)cc3)c2cc2c1[nH]c1ccccc12
inactive: dose: 16.0 mg/kg/injection, schedule: Q01DX005 (ip), vehicle: saline 100 % of control | dose: 32.0 mg/kg/injection, schedule: Q01DX005 (ip), vehicle: saline 100 % of control | dose: 64.0 mg/kg/injection, schedule: Q01DX005 (ip), vehicle: saline 105 % of control | dose: 128.0 mg/kg/injection, schedule: Q01DX005 (ip), vehicle: saline 103 % of control

COc1ccc(OC)c(NC(=S)NNC(=S)NNc2ccccc2)c1
inactive: [1] 101 % of control | [3] 104 % of control | [5] 93 % of control

COc1ccc(C(O)(CNCc2ccccc2)c2ccccc2)cc1 (stereo unspecified)
inactive: dose: 100.0 mg/kg/injection, schedule: Q01DX001 (ip), vehicle: saline with Tween-80 97 % of control

Clc1cccc(/C=N/Nc2nnc(N/N=C/c3cccc(Cl)c3)c3ccccc23)c1
inactive: dose: 50.0 mg/kg/injection, schedule: Q01DX001 (ip), vehicle: saline 100 % of control | dose: 100.0 mg/kg/injection, schedule: Q01DX001 (ip), vehicle: saline 103 % of control | dose: 200.0 mg/kg/injection, schedule: Q01DX001 (ip), vehicle: saline 100 % of control | dose: 400.0 mg/kg/injection, schedule: Q01DX001 (ip), vehicle: saline 100 % of control
